Read-outs that look alike come from different tables or passages of the source.

Test in all cases: biochemical
What all share (set-up): protein methyltransferase selectivity panel, enzyme activity relative to DMSO controls, single concentration in duplicate

Assay [1] has as its target T1, NSD3 (Homo sapiens, UniProt Q9BZ95).
T1 sequence (Q9BZ95 1-1437): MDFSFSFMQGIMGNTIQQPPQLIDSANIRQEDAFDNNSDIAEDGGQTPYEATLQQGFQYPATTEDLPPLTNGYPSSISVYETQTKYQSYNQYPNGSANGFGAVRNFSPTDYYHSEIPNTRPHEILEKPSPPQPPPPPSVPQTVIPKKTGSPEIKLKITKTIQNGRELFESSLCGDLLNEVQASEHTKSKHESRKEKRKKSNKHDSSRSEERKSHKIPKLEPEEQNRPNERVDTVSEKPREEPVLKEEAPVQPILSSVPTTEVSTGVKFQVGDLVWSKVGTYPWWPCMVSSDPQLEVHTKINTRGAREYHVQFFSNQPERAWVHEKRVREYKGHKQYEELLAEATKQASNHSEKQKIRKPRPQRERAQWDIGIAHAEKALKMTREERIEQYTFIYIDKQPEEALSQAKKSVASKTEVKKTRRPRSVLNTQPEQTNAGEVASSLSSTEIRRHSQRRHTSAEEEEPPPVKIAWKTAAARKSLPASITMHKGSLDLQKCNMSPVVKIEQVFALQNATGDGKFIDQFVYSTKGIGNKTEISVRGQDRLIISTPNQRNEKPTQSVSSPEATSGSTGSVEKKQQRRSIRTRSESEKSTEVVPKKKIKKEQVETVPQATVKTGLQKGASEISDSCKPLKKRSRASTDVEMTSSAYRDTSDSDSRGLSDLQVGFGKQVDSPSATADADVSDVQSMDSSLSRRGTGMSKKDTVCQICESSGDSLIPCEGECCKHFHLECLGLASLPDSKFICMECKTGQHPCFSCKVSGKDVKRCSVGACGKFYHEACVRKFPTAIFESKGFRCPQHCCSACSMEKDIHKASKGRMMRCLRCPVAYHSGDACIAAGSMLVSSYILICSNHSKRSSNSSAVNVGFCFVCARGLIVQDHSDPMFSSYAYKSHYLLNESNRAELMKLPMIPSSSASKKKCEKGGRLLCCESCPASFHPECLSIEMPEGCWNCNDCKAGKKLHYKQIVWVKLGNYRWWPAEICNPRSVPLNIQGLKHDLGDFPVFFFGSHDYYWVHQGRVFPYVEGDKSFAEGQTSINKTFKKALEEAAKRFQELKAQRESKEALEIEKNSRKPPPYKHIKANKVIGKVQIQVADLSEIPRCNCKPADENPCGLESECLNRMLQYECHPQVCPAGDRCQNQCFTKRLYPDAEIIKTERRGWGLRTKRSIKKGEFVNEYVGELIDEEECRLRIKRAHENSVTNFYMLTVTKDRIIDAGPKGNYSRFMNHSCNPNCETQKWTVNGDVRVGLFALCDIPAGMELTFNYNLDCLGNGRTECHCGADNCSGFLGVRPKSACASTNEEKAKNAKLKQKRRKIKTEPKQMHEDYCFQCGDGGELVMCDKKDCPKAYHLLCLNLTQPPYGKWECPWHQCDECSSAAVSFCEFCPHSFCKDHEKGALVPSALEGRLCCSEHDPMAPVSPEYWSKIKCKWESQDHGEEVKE
Conditions: Substrate:=Nucleosomes. On the procedure: (§1) We next assessed selectivity of MS67 against 22 protein methyltransferases (table S2) and a broad panel of common drug targets including 45 kinases (table S3) and 44 G protein–coupled receptors (GPCR), ion channels, and transporters (table S4). […] We subsequently determined that MS67 had moderate binding affinity (Ki = 1.0 ± 0.8 μM) to Sigma 2 receptor (fig. S10).

Assay [2] addresses T2, SUV39H1 (Homo sapiens, UniProt O43463).
T2 sequence (O43463 1-412): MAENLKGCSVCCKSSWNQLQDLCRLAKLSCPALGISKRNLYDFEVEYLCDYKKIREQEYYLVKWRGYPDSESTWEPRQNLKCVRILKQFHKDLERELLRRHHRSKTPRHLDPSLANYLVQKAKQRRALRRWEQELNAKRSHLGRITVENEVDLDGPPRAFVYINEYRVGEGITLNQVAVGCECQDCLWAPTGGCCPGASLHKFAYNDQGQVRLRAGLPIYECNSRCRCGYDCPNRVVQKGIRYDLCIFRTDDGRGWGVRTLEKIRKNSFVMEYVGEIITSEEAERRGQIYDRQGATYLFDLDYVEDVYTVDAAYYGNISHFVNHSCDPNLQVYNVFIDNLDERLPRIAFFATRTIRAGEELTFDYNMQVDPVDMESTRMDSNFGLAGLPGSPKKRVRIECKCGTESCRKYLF
Conditions: Substrate:=Histone H3. As to the method: as §1

Assay [3] deals with PRMT1 (Homo sapiens, UniProt Q99873). Conditions: Substrate:=Histone H4. On the procedure:
as §1

Assay [4] has as its target PRMT8 (Homo sapiens, UniProt Q9NR22). The note with it: Substrate:=Histone H4. On the procedure:
as §1

[5] abbreviates: read-out: Enzyme % Activity (relative to DMSO controls) / MS67 / 10 / Data 1:
The mark [6] stands for this setting: read-out: Enzyme % Activity (relative to DMSO controls) / MS67 / 10 / Data 2:

Chain of PRMT1 (Q99873 whole entry): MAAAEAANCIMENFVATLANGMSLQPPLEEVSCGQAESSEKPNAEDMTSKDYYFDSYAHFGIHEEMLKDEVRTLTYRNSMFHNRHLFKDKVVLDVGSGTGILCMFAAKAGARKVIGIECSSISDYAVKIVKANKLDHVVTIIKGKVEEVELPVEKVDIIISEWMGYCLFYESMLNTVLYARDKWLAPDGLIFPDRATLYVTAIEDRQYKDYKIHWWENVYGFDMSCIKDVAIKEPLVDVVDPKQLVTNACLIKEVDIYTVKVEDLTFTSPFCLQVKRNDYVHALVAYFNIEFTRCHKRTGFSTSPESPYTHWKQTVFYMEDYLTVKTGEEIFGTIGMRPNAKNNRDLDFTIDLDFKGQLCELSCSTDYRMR
Chain of PRMT8 (Q9NR22 whole entry): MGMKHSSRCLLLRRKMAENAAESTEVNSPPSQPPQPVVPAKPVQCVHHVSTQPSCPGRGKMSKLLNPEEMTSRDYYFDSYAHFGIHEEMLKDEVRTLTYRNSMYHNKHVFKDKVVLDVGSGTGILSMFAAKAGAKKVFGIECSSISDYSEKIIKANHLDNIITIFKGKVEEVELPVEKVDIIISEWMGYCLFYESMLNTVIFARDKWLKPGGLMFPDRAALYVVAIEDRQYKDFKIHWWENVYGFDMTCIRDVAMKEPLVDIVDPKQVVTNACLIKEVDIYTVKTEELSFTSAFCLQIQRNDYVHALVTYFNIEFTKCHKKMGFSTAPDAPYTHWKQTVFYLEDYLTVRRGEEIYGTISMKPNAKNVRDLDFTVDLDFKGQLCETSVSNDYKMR

Regarding `Cc1ncsc1-c1ccc([C@H](C)NC(=O)[C@@H]2C[C@@H](O)CN2C(=O)[C@@H](NC(=O)CNC(=O)c2ccc(F)c(-c3ccc(N4C[C@@H](C)N(C)[C@@H](C)C4)c(NC(=O)c4c[nH]c(=O)cc4C(F)(F)F)c3)c2)C(C)(C)C)cc1` [MS67], the remaining activity at 10 µM was 136% in assay [1] (setting [5]); 145% in assay [1] (setting [6]); 96% in assay [2] (setting [5]); 105% in assay [2] (setting [6]); 98.9% in assay [3] (setting [5]); 96% in assay [3] (setting [6]). Further, the figures for the remaining activity at 10 µM in assay [4] (setting [5]) and in assay [4] (setting [6]) were 102% and 98.1%, respectively.

For the origin of these results see publication PMC8500670, “A selective WDR5 degrader inhibits acute myeloid leukemia in patient-derived mouse models” (Science translational medicine, 2021).
